Experimental data published in patent EP1351977B1, “ANTIMICROBIAL PSEUDOPEPTIDES” (INSTITUT NATIONAL DE LA RECHERCHE AGRONOMIQUE (INRA), priority 2001, dated 2004).
Read-outs that look alike come from different tables or passages of the source. Ends that are not written are not given here.

Tests used:
Assay type in all cases: cell-based
Alternaria brassicae = assay: Antifungal growth inhibition test in liquid medium
Botrytis cinerea sp = assay: Antifungal growth inhibition test in liquid medium
Botrytis cinerea myc = assay: Antifungal growth inhibition test in liquid medium
Cladosporium sp = assay: Antifungal growth inhibition test in liquid medium
Cladosporium myc = assay: Antifungal growth inhibition test in liquid medium
[1] = system: Helminthosporium teres sp; assay: Antifungal growth inhibition test in liquid medium
Rhizoctonia solani myc = assay: Antifungal growth inhibition test in liquid medium
Fusarium culmorum sp = assay: Antifungal growth inhibition test in liquid medium
Text: (§1) Les composés des pics 5, 7 et 8 de la figure 1 ont été testées vis-à-vis d'un ensemble de champignons phytopathogènes. Trois doses (10, 20, et 40 ppm) ont été employées pour chacun des composés.
(§2) L'activité antifongique a été détectée par un test d'inhibition de croissance en milieu liquide. Les spores des champignons à tester ont été mises en suspension dans un milieu de culture de type "Pomme de terre-Glucose". De préférence, on utilise 12 g de milieu Potato Dextrose Broth (Difco) pour 1 litre d'eau déminéralisée. Deux antibiotiques ont été rajoutés au milieu de culture: la tétracycline (concentration finale de 10 µg/ml) et la céfotaxime (100 µg/ml). On dépose 10 µl de chaque composé à tester dans des plaques de microtitration en présence de 90 µl de milieu de culture contenant les spores (à une concentration finale de 10^4 spores/ml). L'incubation a été réalisée en chambre humide à 30°C durant 48 heures. La croissance fongique a été observée au microscope photonique après 24 h et quantifiée après 48 heures par mesure de l'absorbance à 600 nm à l'aide d'un spectrophotomètre lecteur de plaque de microtitration. L'activité des composés contre les champignons phytopathogènes est exprimée par un pourcentage d'inhibition de croissance correspondant à 100 x (1 - absorbance avec produit/ absorbance du témoin sans produit), l'absorbance étant mesurée à 600 nm, 5 jours après le début de l'expérience.

Phytophthora myc = assay: Antifungal growth inhibition test in liquid medium
Text: as §1, §2

Piricularia oryzae sp = system: Piricularia oryzae sp
Septoria tritici sp = assay: Antifungal growth inhibition test in liquid medium
Escherichia coli CIP548 = assay: Bacterial growth inhibition test in Petri dish (solid medium), MIC; settings: MIC extrapolated from inhibition diameter vs log10 concentration
Salmonella sp. = assay: as above; settings: MIC extrapolated from inhibition diameter vs log10 concentration
Method: Deux tests ont été utilisés pour mesurer l'activité antibactérienne des pseudopeptides, un test d'inhibition de la croissance bactérienne en microplaques (de 96 puits) en milieu liquide et un test d'inhibition de la croissance bactérienne en boîte de Pétri en milieu solide. • * Test en microplaques: La culture bactérienne à tester est prélevée en phase exponentielle, puis diluée au 1/500^ème dans du milieu liquide TSB frais. Chaque puits de la microplaque est rempli avec 100 µl de suspension bactérienne diluée. Dans le premier puits, 100 µl de l'échantillon de pseudopeptide à tester est ajouté à la suspension bactérienne, puis l'échantillon est dilué de 2 en 2 en transférant d'un puits à l'autre 100 µl de suspension. La lecture de la microplaque se fait en mesurant la densité optique à […] (DO600nm) après 24h d'incubation à 28°C ou 37°C selon les bactéries cibles. Connaissant la concentration en pseudopeptide de l'échantillon de départ, ce test permet de déterminer la valeur de la CMI (Concentration Minimale d'Inhibition de la croissance bactérienne). Dans ce test, la CMI correspond à la concentration de l'échantillon pour lequel la DO600nm est inférieure à celle du témoin de culture. • * Test en boîte de Pétri: La culture bactérienne à tester est prélevée en phase exponentielle, puis incorporée à 10 ml d'une gélose dite "sous-couche" (Agarose 1% poids/vol; NaCl 100 mM; Trypcase 0.03 % poids/vol; Tampon phosphate 10 mM pH7.4) à raison de 2.10^5 bactéries/ml. Le mélange est coulé dans une boîte de Pétri ordinaire. 9 puits d'environ 10 µl de volume sont formés dans la "sous-couche" à l'aide d'un embout de pipette stérile de 10 ml. Ces puits sont remplis avec une série de dilutions des pseudopeptides à tester (concentration initiale 500 µg/ml, et dilution de deux en deux jusqu'à 1,95 µg/ml). Après diffusion à température ambiante pendant 2h, une gélose dite "sur-couche" (Agarose 1% wt/vol; Trypcase 6 % wt/vol; Tampon phosphate 10 mM pH7.4) est ajoutée sur la sous-couche à raison de 5 à 10 ml. Après solidification, l'ensemble est mis à incuber pendant une nuit. Le diamètre d'inhibition de la culture bactérienne autour de chaque puits est mesuré en mm; il existe une relation linéaire entre le diamètre d'inhibition et le log10 de la concentration en pseudopeptide qui permet de déterminer par extrapolation la valeur de la CMI.
Une première série de résultats a été obtenue en utilisant le test en boîte de Pétri vis-à-vis de bactéries non pathogènes issues de la collection de Travaux pratiques du laboratoire de Pathologie Comparée de l'Université de Montpellier (France). Dans cette série, les pseudopeptides des pics 5, 7, 8,10 et 11 ont été testés (Tableau 4).

Klebsiella pneumoniae = assay: as above; settings: MIC extrapolated from inhibition diameter vs log10 concentration
[2] = system: Proteus vulgaris CIP58.60; assay: as above; settings: MIC extrapolated from inhibition diameter vs log10 concentration
Serratia entomophila = assay: as above; settings: MIC extrapolated from inhibition diameter vs log10 concentration
Staphylococcus aureus = assay: as above; settings: MIC extrapolated from inhibition diameter vs log10 concentration
[3] = system: Staphylococcus epidermidis; assay: as above; settings: MIC extrapolated from inhibition diameter vs log10 concentration
Streptococcus Gr. D = assay: as above; settings: MIC extrapolated from inhibition diameter vs log10 concentration
Pseudomonas fluorescens = assay: as above; settings: MIC extrapolated from inhibition diameter vs log10 concentration
Bacillus megaterium = assay: as above; settings: MIC extrapolated from inhibition diameter vs log10 concentration

## Composé 5: pseudopeptide du pic n° 5 (HPLC, Figure 1) de Xenorhabdus nematophilus F1; Famille 1: Lys Lys Lys Lys Lys Gly; 1052 Da (KKKKKG; also: pseudopeptide modifications)
Alternaria brassicae; 10 ppm
  pourcentage d'inhibition de croissance: 82%
Alternaria brassicae; 20 ppm
  pourcentage d'inhibition de croissance: 84%
Alternaria brassicae; 40 ppm
  pourcentage d'inhibition de croissance: 83%
Botrytis cinerea sp; 10 ppm
  pourcentage d'inhibition de croissance: 38%
Botrytis cinerea sp; 20 ppm
  pourcentage d'inhibition de croissance: 95%
Botrytis cinerea sp; 40 ppm
  pourcentage d'inhibition de croissance: 95%
Botrytis cinerea myc; 10 ppm
  pourcentage d'inhibition de croissance: 21%
Botrytis cinerea myc; 20 ppm
  pourcentage d'inhibition de croissance: 34%
Botrytis cinerea myc; 40 ppm
  pourcentage d'inhibition de croissance: 60%
Cladosporium sp; 10 ppm
  pourcentage d'inhibition de croissance: 94%
Cladosporium sp; 20 ppm
  pourcentage d'inhibition de croissance: 94%
Cladosporium sp; 40 ppm
  pourcentage d'inhibition de croissance: 94%
Cladosporium myc; 10 ppm
  pourcentage d'inhibition de croissance: 89%
Cladosporium myc; 20 ppm
  pourcentage d'inhibition de croissance: 90%
Cladosporium myc; 40 ppm
  pourcentage d'inhibition de croissance: 89%
[1]; 10 ppm
  pourcentage d'inhibition de croissance: 70%
[1]; 20 ppm
  pourcentage d'inhibition de croissance: 91%
[1]; 40 ppm
  pourcentage d'inhibition de croissance: 95%
Rhizoctonia solani myc; 10 ppm
  pourcentage d'inhibition de croissance: 9.7%
Rhizoctonia solani myc; 20 ppm
  pourcentage d'inhibition de croissance: 85%
Rhizoctonia solani myc; 40 ppm
  pourcentage d'inhibition de croissance: 93%
Fusarium culmorum sp; 10 ppm
  pourcentage d'inhibition de croissance: 96%
Fusarium culmorum sp; 20 ppm
  pourcentage d'inhibition de croissance: 96%
Fusarium culmorum sp; 40 ppm
  pourcentage d'inhibition de croissance: 96%
Phytophthora myc; 10 ppm
  pourcentage d'inhibition de croissance: 79%
Phytophthora myc; 20 ppm
  pourcentage d'inhibition de croissance: 78%
Phytophthora myc; 40 ppm
  pourcentage d'inhibition de croissance: 77%
Piricularia oryzae sp; 10 ppm
  pourcentage d'inhibition de croissance: 18%
Piricularia oryzae sp; 20 ppm
  pourcentage d'inhibition de croissance: 22%
Piricularia oryzae sp; 40 ppm
  pourcentage d'inhibition de croissance: 45%
Septoria tritici sp; 10 ppm
  pourcentage d'inhibition de croissance: 88%
Septoria tritici sp; 20 ppm
  pourcentage d'inhibition de croissance: 88%
Septoria tritici sp; 40 ppm
  pourcentage d'inhibition de croissance: 85%
Escherichia coli CIP548
  CMI: 15 µg/mL
Salmonella sp.
  CMI: 30 µg/mL
Klebsiella pneumoniae
  CMI: 30 µg/mL
[2]
  CMI: 200 µg/mL
Serratia entomophila
  CMI: 60 µg/mL
Staphylococcus aureus
  CMI: 7,5 µg/ml
[3]
  CMI: 30 µg/mL
Streptococcus Gr. D
  CMI: 200 µg/mL
Pseudomonas fluorescens
  CMI: 3 µg/mL
Bacillus megaterium
  CMI: 0,75 µg/ml
